# Values of other authors as cited in US11058694B2, “Nutritional supplements for growth enhancement in pre-pubertal adolescents” (Nutritional Growth Solutions LTD, priority 2014, dated 2021).
# What was measured:
# [1] = versus placebo, daily syrup for six months
# [2] = 33 randomized controlled intervention trials
# [3] = 6-12 months follow-up, normal serum zinc levels
molecule,measurement,setting,value
[Fe] [iron],"increase in hemoglobin concentrations, effect size","iron interventions, 95% CI: 0.46, 2.51",1.49
same,effect of supplementation intervention on child growth,iron supplementation,no significant effect
[Zn] [zinc],mean height for age Z-score,[1],decreased to a greater extent than placebo
same,responses in height and in weight increments,[2],significant positive responses
same,height or weight-SDS,[3],did not significantly changed
vitamin A,effect of supplementation interventions on growth,vitamin A supplementation,no significant effect on growth
